From US8461083B2, “Herbicidal compounds” (Syngenta Limited, priority 2008, dated 2013)

What was measured:
Assay type in all cases: in vivo
[1] = system: Alopecurus myosuroides (ALOMY); experiment: Post-emergence herbicidal glasshouse test; settings: post-emergence (sprayed after 8 days cultivation), evaluated after 13 days, 100=total damage to plant, 0=no damage to plant; for POST Application ALOMY, damage to plant: 1000 g/ha; for pest or weed control at 1000 g/ha: Alopecurus myosuroides, 312 h, read-out: POST Application ALOMY, damage to plant
Summary of the method: (§1)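 Damage was rated visually 13 days after treatment on a 0–100 scale, 100 meaning total damage. Pot-grown plants received a 1000 g/ha spray in acetone/water (50:50) containing 0.5% Tween 20, either one day after sowing or after eight days of growth.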

[2] = system: Amaranthus retoflexus (AMARE); experiment: Post-emergence herbicidal glasshouse test; settings: post-emergence (sprayed after 8 days cultivation), evaluated after 13 days, 100=total damage to plant, 0=no damage to plant; for POST Application AMARE, damage to plant: 1000 g/ha; for pest or weed control at 1000 g/ha: Amaranthus retroflexus, 312 h, read-out: POST Application AMARE, damage to plant
Summary of the method: as §1

[3] = system: Echinochloa crus-galli (ECHCG); experiment: Post-emergence herbicidal glasshouse test; settings: post-emergence (sprayed after 8 days cultivation), evaluated after 13 days, 100=total damage to plant, 0=no damage to plant; for POST Application ECHCG, damage to plant: 1000 g/ha; for pest or weed control at 1000 g/ha: Echinochloa crus-galli, 312 h, read-out: POST Application ECHCG, damage to plant
Summary of the method: (§2)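 Seeds were sown in standard soil in pots and sprayed 1 day after sowing (pre-emergence) or after 8 days' cultivation (post-emergence). Compounds were applied at 1000 g/ha in acetone/water (50:50) with 0.5% Tween 20. Plants were kept at 24/16 °C day/night, 14 h light, 65% humidity, and damage was scored after 13 days (0 = none, 100 = total).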

Setaria faberi (SETFA) [4] = experiment: Post-emergence herbicidal glasshouse test; settings: post-emergence (sprayed after 8 days cultivation), evaluated after 13 days, 100=total damage to plant, 0=no damage to plant; for POST Application SETFA, damage to plant: 1000 g/ha; for pest or weed control at 1000 g/ha: Setaria faberi, 312 h, read-out: POST Application SETFA, damage to plant
Summary of the method: as §1

Solanum nigrum (SOLNI) [5] = experiment: Post-emergence herbicidal glasshouse test; settings: post-emergence (sprayed after 8 days cultivation), evaluated after 13 days, 100=total damage to plant, 0=no damage to plant; for POST Application SOLNI, damage to plant: 1000 g/ha; for pest or weed control at 1000 g/ha: Solanum nigrum, 312 h, read-out: POST Application SOLNI, damage to plant
Summary of the method: as §1

[6] = system: Alopecurus myosuroides (ALOMY); experiment: Pre-emergence herbicidal glasshouse test; settings: pre-emergence (sprayed after one day cultivation), evaluated after 13 days, 100=total damage to plant, 0=no damage to plant; for PRE Application ALOMY, damage to plant: 1000 g/ha; for pest or weed control at 1000 g/ha: Alopecurus myosuroides, 312 h, read-out: PRE Application ALOMY, damage to plant
Summary of the method: as §1

[7] = system: Amaranthus retoflexus (AMARE); experiment: Pre-emergence herbicidal glasshouse test; settings: pre-emergence (sprayed after one day cultivation), evaluated after 13 days, 100=total damage to plant, 0=no damage to plant; for PRE Application AMARE, damage to plant: 1000 g/ha; for pest or weed control at 1000 g/ha: Amaranthus retroflexus, 312 h, read-out: PRE Application AMARE, damage to plant
Summary of the method: as §1

[8] = system: Echinochloa crus-galli (ECHCG); experiment: Pre-emergence herbicidal glasshouse test; settings: pre-emergence (sprayed after one day cultivation), evaluated after 13 days, 100=total damage to plant, 0=no damage to plant; for PRE Application ECHCG, damage to plant: 1000 g/ha; for pest or weed control at 1000 g/ha: Echinochloa crus-galli, 312 h, read-out: PRE Application ECHCG, damage to plant
Summary of the method: as §2

Setaria faberi (SETFA) [9] = experiment: Pre-emergence herbicidal glasshouse test; settings: pre-emergence (sprayed after one day cultivation), evaluated after 13 days, 100=total damage to plant, 0=no damage to plant; for PRE Application SETFA, damage to plant: 1000 g/ha; for pest or weed control at 1000 g/ha: Setaria faberi, 312 h, read-out: PRE Application SETFA, damage to plant
Summary of the method: as §1

Solanum nigrum (SOLNI) [10] = experiment: Pre-emergence herbicidal glasshouse test; settings: pre-emergence (sprayed after one day cultivation), evaluated after 13 days, 100=total damage to plant, 0=no damage to plant; for PRE Application SOLNI, damage to plant: 1000 g/ha; for pest or weed control at 1000 g/ha: Solanum nigrum, 312 h, read-out: PRE Application SOLNI, damage to plant
Summary of the method: as §1

SMILES | POST Application ALOMY, damage to plant [1] | POST Application AMARE, damage to plant [2] | POST Application ECHCG, damage to plant [3] | POST Application SETFA, damage to plant (Setaria faberi (SETFA) [4]) | POST Application SOLNI, damage to plant (Solanum nigrum (SOLNI) [5]) | PRE Application ALOMY, damage to plant [6] | PRE Application AMARE, damage to plant [7] | PRE Application ECHCG, damage to plant [8] | PRE Application SETFA, damage to plant (Setaria faberi (SETFA) [9]) | PRE Application SOLNI, damage to plant (Solanum nigrum (SOLNI) [10]) | pest or weed control at 1000 g/ha [1] | pest or weed control at 1000 g/ha [2] | pest or weed control at 1000 g/ha [3] | pest or weed control at 1000 g/ha (Setaria faberi (SETFA) [4]) | pest or weed control at 1000 g/ha (Solanum nigrum (SOLNI) [5]) | pest or weed control at 1000 g/ha [6] | pest or weed control at 1000 g/ha [7] | pest or weed control at 1000 g/ha [8] | pest or weed control at 1000 g/ha (Setaria faberi (SETFA) [9]) | pest or weed control at 1000 g/ha (Solanum nigrum (SOLNI) [10])
CC#CCn1c(=O)ccc2cc(C(=O)C3C(=O)CCCC3=O)c(C(F)(F)F)nc21 [Compound 2.19, 2-(8-(But-2-ynyl)-7-oxo-7,8-dihydro-2-trifluoromethyl-[1,8]-naphthyridine-3-carbony)-cyclohexane-1,3-dione] | 100 | 70 | 90 | 100 | 100 | 100 | 100 | 100 | 100 | 100 | – | – | – | – | – | – | – | – | – | –
O=C1CCCC(=O)C1C(=O)c1cc2ccc(=O)n(Cc3ccccc3)c2nc1C(F)(F)F [Compound 2.20, 2-(8-Benzyl-7-oxo-7,8-dihydro-2-trifluoromethyl-[1,8]-naphthyridine-3-carbony)-cyclohexane-1,3-dione] | 70 | 80 | 70 | 70 | 80 | 100 | 100 | 100 | 100 | 100 | – | – | – | – | – | – | – | – | – | –
Cn1c(=O)ccc2cc(C(=O)C3C(=O)CCCC3=O)c(C(F)(F)F)nc21 [Compound 2.21, 2-(8-methyl-7-oxo-7,8-dihydro-2-trifluoromethyl-[1,8]-naphthyridine-3-carbony)-cyclohexane-1,3-dione] | – | – | – | – | – | – | – | – | – | – | 80% | 90% | 70% | 80% | 80% | 90% | 100% | 100% | 100% | 100%
COCCn1c(=O)ccc2cc(C(=O)C3C(=O)CCCC3=O)c(C(F)(F)F)nc21 [Compound 2.22, 2-{8-(2-Methoxyethyl)-7-oxo-7,8-dihydro-2-trifluoromethyl-[1,8]-naphthyridine-3-carbony}-cyclohexane-1,3-dione] | 80 | 80 | 80 | 80 | 90 | 100 | 100 | 100 | 100 | 100 | – | – | – | – | – | – | – | – | – | –
O=C(c1cc2cc(F)c(O)nc2nc1C(F)(F)F)C1C(=O)C2CCC(C2)C1=O (stereo not drawn) [Compound 3.1] | – | – | – | – | – | – | – | – | – | – | 60% | 80% | 70% | 80% | 80% | 60% | 100% | 90% | 90% | 100%
CCOc1nc2nc(C(F)(F)F)c(C(=O)C3C(=O)C4CCC(C4)C3=O)cc2cc1F (stereo not drawn) [Compound 3.4] | – | – | – | – | – | – | – | – | – | – | 70% | 70% | 80% | 90% | 90% | 70% | 100% | 100% | 100% | 100%
Cc1c(F)cnc2nc(C(F)(F)F)c(C(=O)C3C(=O)C4CCC(C4)C3=O)cc12 (stereo not drawn) [Compound 3.5, 3-[6-Fluoro-5-methyl-2-trifluoromethyl-[1,8]-naphthyridine-3-carbony]-bicyclo[3.2.1]octane-2,4-dione] | – | – | – | – | – | – | – | – | – | – | 0% | 50% | 70% | 70% | 80% | 0% | 20% | 50% | 30% | 60%
O=C(c1cc2ccc(CCF)nc2nc1C(F)(F)F)C1C(=O)C2CCC(C2)C1=O (stereo not drawn) [Compound 3.10] | 80 | 100 | 90 | 90 | 90 | 70 | 70 | 100 | 90 | 100 | – | – | – | – | – | – | – | – | – | –
CC(CF)c1ccc2cc(C(=O)C3C(=O)C4CCC(C4)C3=O)c(C(F)(F)F)nc2n1 (stereo not drawn) [Compound 3.11] | 70 | 100 | 80 | 90 | 90 | 70 | 100 | 100 | 90 | 100 | – | – | – | – | – | – | – | – | – | –
CCOc1ccc2cc(C(=O)C3=C(OC(=O)C(C)C)CCCC3=O)c(C(F)(F)F)nc2n1 [Compound 4.19, isobutyric acid 2-(7-ethoxy-2-trifluoromethyl-[1,8]-naphthyridine-3-carbonyl)-3-oxo-cyclohex-1-enyl ester] | – | – | – | – | – | – | – | – | – | – | 80% | 70% | 80% | 90% | 90% | 70% | 100% | 100% | 100% | 100%
Cc1nc2nc(C(F)(F)F)c(C(=O)C3=C(OC(=O)C(C)C)CCCC3=O)cc2cc1F [Compound 4.21, Isobutyric acid 2-(6-fluoro-7-methyl-2-trifluoromethyl-[1,8]-naphthyridine-3-carbonyl)-3-oxo-cyclohex-1-enyl ester] | – | – | – | – | – | – | – | – | – | – | 80% | 90% | 80% | 80% | 80% | 80% | 100% | 100% | 100% | 100%
CCCCCCCC(=O)OC1=C(C(=O)c2cc3cc(F)c(C)nc3nc2C(F)(F)F)C(=O)CCC1 [Compound 4.22, n-Octanoic acid 2-(6-fluoro-7-methyl-2-trifluoromethyl-[1,8]-naphthyridine-3-carbonyl)-3-oxo-cyclohex-1-enyl ester] | – | – | – | – | – | – | – | – | – | – | 70% | 90% | 90% | 80% | 90% | 60% | 100% | 100% | 100% | 100%
